Article PMC12692291, “Development and In Vitro Evaluation of [^64Cu]Cu-NOTA-TP-PSMA, a Novel Radiotheranostic Agent Against Prostate Cancer” (International Journal of Molecular Sciences, 2025)

How the values were obtained:
[1] = tested on: HEK-293 cells; test: PrestoBlue cytotoxicity assay in HEK-293 cells; type: cell-based, human; settings: consistently across time points; read-out: EC50 in HEK-293 cells
Protocol: (§1) The cytotoxicity of compounds 1–3, ^natCu-NOTA-TP-PSMA, and cisplatin (platinum-based drug) were assessed with PrestoBlue, a resazurin-based method to assess mitochondrial function in LNCaP and HEK-293 cells at 24, 48, and 72 h. Effective concentration (EC50) values summarized in Table 3 were calculated from the dose–response curves of each compound (Figure S7).
(§2) Cytotoxicity was evaluated using a resazurin-based assay (PrestoBlue) in 96-well plates. LNCaP (15,000 cells/well) and HEK-293 (10,000 cells/well) were seeded and incubated for 72 h. Cells were then treated with serial dilutions of [^64Cu]Cu-NOTA-TP-PSMA and controls for 24, 48, or 72 h. After treatment, cells were rinsed with PBS and incubated with PrestoBlue reagent for 40 min. Fluorescence was measured at 570 nm (excitation) and 610 nm (emission). Background readings from blank wells were subtracted. Cell viability was calculated relative to untreated controls. IC50 values were determined using dose–response curves. Controls included [^64Cu]Cu-NOTA-TP, [^64Cu]Cu-NOTA-PSMA, ^natCu-NOTA-TP-PSMA, and cisplatin (0–500 µM in 0.9% saline). All assays were performed in triplicate and all data presented in Results are the average of three independent experiments. TP conjugates were dissolved in 1% DMSO and diluted in saline. Inhibitory concentration 50 (IC50) values were calculated to quantify the effectiveness of the compounds.

[2] = tested on: HEK-293 cells; test: Nuclear localization in HEK-293 cells; type: cell-based, human
Protocol: (§3) To assess nuclear localization, LNCaP and HEK-293 cells were incubated with 1 MBq of [^64Cu]Cu-NOTA-TP-PSMA 1 for 24, 48, and 72 h. Nuclear extraction was performed following a previously established protocol. Following incubation, cells were lysed and fractionated using cytoskeletal buffer to isolate nuclear components. Nuclear and cytoplasmic radioactivity were measured using a HIDEX automatic gamma counter. Data were used to evaluate time-dependent nuclear accumulation of the tracer.

[3] = tested on: HEK-293 cells; test: Cellular uptake and internalization in HEK-293 cells; type: cell-based, human
[4] = In vitro plasma stability and plasma protein binding; type: in vitro ADME; settings: mouse plasma, 37 °C, 24 h
Protocol: The in vitro plasma stability of [^64Cu]Cu-NOTA-TP-PSMA 1 was evaluated by incubating […] of the radiolabeled compound (in 250 μL PBS) with 250 μL of freshly collected mouse plasma at 37 °C for up to 24 h. At predefined time points, (1 h, 4 h and 24 h) plasma proteins were precipitated by adding ethanol (1:1, v/v) in two successive steps, followed by vortexing (1 min) and centrifugation at 7000 rpm for 10 min. The resulting supernatant was subjected to ultracentrifugation to ensure complete removal of particulate matter.
For assessment of in vitro stability, the clarified supernatant was analyzed by radio-instant thin-layer chromatography (radio-iTLC) on C18 silica gel plates, using 0.1 M sodium citrate buffer (pH 5.5) as the mobile phase. Radiodetection was performed using an Instant Imager system (BioScan, Washington, DC, USA). Free [^64Cu]Cu(OAc)2 and intact [^64Cu]Cu-NOTA-TP-PSMA served as controls to facilitate peak identification. Under these chromatographic conditions, the radiolabeled complex remained at the origin, while free copper migrated with the solvent front (Figure S5).
To quantify the extent of protein binding, radioactivity in both the protein pellet and the supernatant was measured using a dose calibrator. The percentage of protein-bound radioactivity was calculated by comparing the activity in the precipitated fraction relative to the total recovered activity. […]

[5] = tested on: LNCaP cells; test: Cellular uptake and internalization in LNCaP cells; type: cell-based
Protocol: LNCaP cells (1 × 10^5 cells/well) were seeded into 24-well plates and incubated for 72 h. Cells were treated with 1nM [^64Cu]Cu-NOTA-TP-PSMA or control monomers ([^64Cu]Cu-NOTA-TP and [^64Cu]Cu-NOTA-PSMA), each containing 0.1 MBq of radioactivity in RPMI-1640 medium.
Uptake and internalization were assessed at multiple time points (30 min to 24 h). At each timepoint, cells were washed with cold PBS, detached with trypsin, and counted using a hemocytometer. For internalization studies, surface-bound radioactivity was removed using 50 mM glycine-HCl buffer (pH 2.2) for 5 min, followed by additional PBS washes.
To investigate the internalization mechanism, parallel experiments were conducted at 4 °C to evaluate passive versus active uptake. Receptor specificity was assessed via blocking assays using 1 µM ^natCu-NOTA-TP-PSMA (1000-fold excess) co-incubated with 1 nM radiolabeled tracer. Post-incubation, intracellular radioactivity was quantified using a HIDEX gamma counter. All results were normalized to 10^6 cells and expressed as percent counts per minute per million cells (%CPM/10^6 cells).

[6] = tested on: LNCaP cells; test: Nuclear localization in LNCaP cells; type: cell-based
Protocol: as §3

[7] = tested on: LNCaP cells; type: cell-based; settings: LNCaP, 24 h
Protocol: as §1, §2

Compound: O=C(O)CC[C@H](NC(=O)N[C@@H](CCCCNC(=O)[C@@H](Cc1ccc2ccccc2c1)NC(=O)C1CCC(CNC(=O)C(CCCCNC(=O)c2cc3[n+]4c(c2)-c2cccc[n+]2[Pt-2]4([Cl])[n+]2ccccc2-3)NC(=O)COCCOCCNC(=O)CN2CCN3CCN(CC2)CC(=O)[O][64Cu][O]C(=O)C3)CC1)C(=O)O)C(=O)O (stereo partly drawn) [[^64Cu]Cu-NOTA-TP-PSMA 1]
- EC50 [1]: > 0.25 µM
- Nuclear uptake HEK-293 ([2]; Table S4, 24 h): 0.08 ± 0.05 %ID/10⁶ cells
- Nuclear uptake HEK-293 ([2]; Table S4, 48 h): 0.15 ± 0.06 %ID/10⁶ cells
- Nuclear uptake HEK-293 ([2]; Table S4, 72 h): 0.85 ± 0.84 %ID/10⁶ cells
- Internalization ([3]; HEK-293, 24 h): 7.6 ± 1.7 % CPM/10^6 cells
- Uptake ([3]; HEK-293, 24 h): 8.30 ± 1.63 %CPM/10^6 cells
- Internalization HEK-293 ([3]; Table S2, 1 h): 4.46 ± 6.12 %ID/10⁶ cells
- Uptake HEK-293 ([3]; Table S2, 1 h): 3.15 ± 0.53 %ID/10⁶ cells
- Internalization HEK-293 ([3]; Table S2, 2 h): 3.34 ± 1.41 %ID/10⁶ cells
- Uptake HEK-293 ([3]; Table S2, 2 h): 3.78 ± 0.95 %ID/10⁶ cells
- Internalization HEK-293 ([3]; Table S2, 4 h): 3.26 ± 0.44 %ID/10⁶ cells
- Uptake HEK-293 ([3]; Table S2, 4 h): 5.27 ± 1.00 %ID/10⁶ cells
- Internalization HEK-293 ([3]; Table S2, 20 h): 6.12 ± 0.88 %ID/10⁶ cells
- Uptake HEK-293 ([3]; Table S2, 20 h): 8.00 ± 2.25 %ID/10⁶ cells
- Internalization HEK-293 ([3]; Table S2, 24 h): 7.65 ± 1.67 %ID/10⁶ cells
- Uptake HEK-293 ([3]; Table S2, 24 h): 8.30 ± 1.63 %ID/10⁶ cells
- free 64Cu2+ in protein-free supernatant (radio-iTLC) [4]: no evidence of free ^64Cu^2+
- total radioactivity bound to plasma proteins [4]: approximately 91%
- internalization fold greater in LNCaP than HEK-293 ([5]; 24 h): approximately 6 fold
- uptake fold greater in LNCaP than HEK-293 ([5]; 24 h): approximately 8 fold
- fold decrease of internalization/uptake at 4 °C versus 37 °C ([5]; LNCaP): ~ 10 fold
- Internalization at 4 °C ([5]; LNCaP, 4 °C, 24 h): 3.9 ± 0.5 %CPM/10^6 cells
- Internalization ([5]; LNCaP, 24 h, 37 °C, 1 nM): 44.9 ± 7.3 %CPM/10^6 cells
- Uptake ([5]; LNCaP, 24 h, 37 °C, 1 nM): 65.9 ± 8.6 %CPM/10^6 cells
- fold decrease of internalization/uptake at 4 °C versus 37 °C ([5]; LNCaP, listed as [^64Cu]Cu-NOTA-TP-PSMA): > 10 fold
- Uptake ([5]; Table S1, LNCaP, 1 h): 16.52 ± 5.38 %ID/10⁶ cells
- Uptake blockage ([5]; Table S1, LNCaP, 1 h, 1 µM natCu-NOTA-TP-PSMA (1000-fold excess)): 11.06 ± 5.93 %ID/10⁶ cells
- Uptake blockage ([5]; Table S1, LNCaP, 2 h, 1000-fold excess blocking): 16.36 ± 7.23 %ID/10⁶ cells
- Uptake ([5]; Table S1, LNCaP, 4 h): 44.61 ± 16.49 %ID/10⁶ cells
- Uptake blockage ([5]; Table S1, LNCaP, 4 h, 1000-fold excess blocking): 18.70 ± 10.46 %ID/10⁶ cells
- Uptake ([5]; Table S1, LNCaP, 20 h): 62.88 ± 9.10 %ID/10⁶ cells
- Uptake blockage ([5]; Table S1, LNCaP, 20 h, 1000-fold excess blocking): 30.68 ± 11.43 %ID/10⁶ cells
- Uptake ([5]; Table S1, LNCaP, 24 h): 65.87 ± 8.37 %ID/10⁶ cells
- Uptake blockage ([5]; Table S1, LNCaP, 24 h, 1000-fold excess blocking): 37.00 ± 13.09 %ID/10⁶ cells
- Internalization LNCaP ([5]; Table S2, 1 h): 11.91 ± 5.75 %ID/10⁶ cells
- Uptake LNCaP ([5]; Table S2, 1 h): 16.52 ± 5.53 %ID/10⁶ cells
- Internalization LNCaP ([5]; Table S2, 2 h): 17.07 ± 6.19 %ID/10⁶ cells
- Uptake LNCaP ([5]; Table S2, 2 h): 28.67 ± 9.74 %ID/10⁶ cells
- Internalization LNCaP ([5]; Table S2, 4 h): 30.27 ± 8.92 %ID/10⁶ cells
- Uptake LNCaP ([5]; Table S2, 4 h): 44.61 ± 16.99 %ID/10⁶ cells
- Internalization LNCaP ([5]; Table S2, 20 h): 42.49 ± 9.41 %ID/10⁶ cells
- Uptake LNCaP ([5]; Table S2, 20 h): 62.88 ± 9.37 %ID/10⁶ cells
- Internalization LNCaP ([5]; Table S2, 24 h): 44.94 ± 7.32 %ID/10⁶ cells
- Uptake LNCaP ([5]; Table S2, 24 h): 65.87 ± 8.61 %ID/10⁶ cells
- fold higher internalization compared to [64Cu]Cu-NOTA-PSMA ([5]; cancer cells (LNCaP), 24 h): 2.7 fold
- fold higher internalization compared to [64Cu]Cu-NOTA-TP ([5]; cancer cells (LNCaP), 24 h): 1.2 fold
- nuclear uptake fold difference LNCaP vs HEK-293 ([6]; 24 h): 84 fold
- nuclear uptake in LNCaP cells ([6]; 24 h): ~ 7 % CPM/10^6 cells
- nuclear uptake fold difference LNCaP vs HEK-293 ([6]; 48 h): 36 fold
- nuclear uptake fold difference LNCaP vs HEK-293 ([6]; 72 h): 1.8 fold
- fold higher nuclear uptake than monomer 2 ([6]; LNCaP, 24 h): ~ 13 fold
- fold higher nuclear uptake than monomer 3 ([6]; LNCaP, 24 h): ~ 16 fold
- Nuclear uptake LNCaP ([6]; Table S4, 24 h): 6.96 ± 1.97 %ID/10⁶ cells
- Nuclear uptake LNCaP ([6]; Table S4, 48 h): 5.66 ± 2.09 %ID/10⁶ cells
- Nuclear uptake LNCaP ([6]; Table S4, 72 h): 1.53 ± 0.38 %ID/10⁶ cells
- fold more potent than monomer 2 [7]: ~ 5 fold
- fold more potent than monomer 3 [7]: ~ 16 fold
